In one experiment the target is T1, Human protein Z (PZ) (Homo sapiens, UniProt P22891).
T1 construct: purchased CellSystems GmbH HCPZ-0220
As to the kind of experiment: SPR binding of porphyrins to immobilized PZ (single-cycle kinetics). As to conditions: tested concentration range 187.5 nM – 12 µM. Here is the method: (§1) SPR experiments were conducted on a Biacore 8K instrument (Cytiva) to investigate the interaction of PZ with heme, as established before.^[ [19] ^, [35] ^, [37] ^, [43] ^] In brief, PZ (10 µg mL^−1) was dissolved in 10 mM sodium acetate buffer (pH 3.5) and immobilized onto a CM5 sensor chip via standard amine coupling, resulting in a final immobilization level of 767 RU. Heme (stock solution in 30 mM NaOH) was further diluted in running buffer (10 mM HEPES, 150 mM NaCl, and 0.05% Tween 20, pH 7.4). The same was performed with zinc (II) protoporphyrin IX and protoporphyrin IX (Frontier Scientific). Binding kinetics were assessed by injecting seven increasing concentrations of heme (187.5–12,000 nM) in a single‐cycle kinetics format at 25 °C and a flow rate of 30 µL min^−1. Data analysis was performed by global fitting using Biacore Insight Evaluation Software, version 3.0.12.15655 (Cytiva).
(Surface plasmon resonance follows binding to a sensor surface in real time, without labels.)

The target in experiment [1] is T2, thrombin (Homo sapiens, UniProt P00734). As to the kind of experiment: SPR binding of porphyrins to immobilized thrombin. More on the design: human α‐thrombin (HCT‐0020); purchased CellSystems GmbH HCT-0020. Here is the method:
as §1
Figure S7. Heme binds to thrombin. For SPR analysis, thrombin (10 µg/ml) was dissolved in 10 mM sodium acetate buffer (pH 6.0) and immobilized onto a CM5 sensor chip via standard amine coupling, resulting in a final immobilization level of 1826.1 RU. Binding kinetics were assessed by injecting six increasing concentrations of heme (187.5 – 6,000 nM) in a single-cycle kinetics format at 25°C and a flow rate of […]
transient nature of heme binding to thrombin. […]

A short description of experiment [2]: UV/vis spectroscopic interaction studies of PZ-derived peptides with heme. It is filed as binding. As to conditions: peptide 10 µM; for heme binding on peptide level: heme 0.4-40 µM; for Kd: read-out: K D (heme-binding affinity of peptide). Here is the method: Heme binding to PZ‐derived peptides 1 –5 was analyzed by UV/vis spectroscopy, as previously reported for other protein‐derived peptides as well.^[ [18] ^, [19] ^, [35] ^, [43] ^, [44] ^] In brief, each peptide (10 µM) was incubated for 30 min with heme in 100 mM HEPES buffer (pH 7.0) for 30 min. Absorbance spectra were recorded in the range of 300–600 nm on a Infinite 200 Pro spectrophotometer. Difference spectra were generated by subtraction of the single absorbance data of heme and the peptide, respectively, from the data of the heme–peptide complex. Difference spectra were plotted with GraphPad Prism, version 10.5.0. K D values were calculated using the equation from Pîrnău and Bogdan (2008).^[ [45] ^]

The test system of another experiment is T3, human α-thrombin.
T3 construct: human α‐thrombin (HCT‐0020); purchased CellSystems GmbH HCT-0020
As to the kind of experiment: Chromogenic thrombin amidolytic activity assay (S-2238). The class given is biochemical. Here is the method: (§2) Herein, an earlier established chromogenic thrombin amidolytic activity assay system was thus used, inspired by Hogg and Stenflo.^[ [19] ^, [28] ^] PZ (final concentration: 10 nM) was first incubated for 30 min with different heme concentrations (final concentrations: 1–1000 nM). Afterward, the heme–PZ mixture was incubated with thrombin for 10 min and the PZ–thrombin mixture (50 µL; final thrombin concentration: 15 nM) was transferred onto a 96‐well plate (Greiner Bio‐One GmbH). Finally, 5 µL of the substrate solution (H‐D‐Phe‐Pip‐Arg‐pNA x 2 HCl (S‐2238); final concentration: 273 µM) was added. Immediately, kinetic measurements at 405 nm were started, using an Infinite 200 Pro spectrophotometer. Heme only, thrombin only, and PZ‐heme only served as controls. For evaluation, the thrombin activity was determined as the change of absorbance per second and always normalized against the basal thrombin activity without PZ. Data were analyzed as the mean of triplicate and the IC50 was calculated by nonlinear regression (GraphPad Prism, version 10.5.0).

The target in the next experiment is T4, PZ (Homo sapiens, UniProt P22891).
T4 construct: purchased CellSystems GmbH HCPZ-0220 (PZ); HCXA-0060 (FXa)
Nature of the experiment: aPTT-based one-stage clotting assay: anticoagulant function of PZ against FXa in the presence of heme. The class given is biochemical. Here is the method:
To estimate an effect on molecular level, the structure of the PZ–ZPI complex (PDB: 3H5C^[ [42] ^]) was first inspected with heme attached to PZ. The anticoagulant function of PZ was then analyzed in the presence of heme by a one‐stage clotting assay, which was inspired by previous work from us and others.^[ [19] ^, [27] ^] The aPTT‐based assay was performed with the ball coagulometer KC 4 A (Amelung, Lemgo, Germany). PZ (320 nM) was preincubated with different concentrations of heme (0–100 µM) for 30 min in 1x PBS, pH 7.4. Afterward, 50 µL of the PZ–heme mixture was incubated with 50 µL of Actin FSL, 50 µl CaCl2 (30 mM), and 50 µL FXa (0.5 nM) at 37 °C for 3 min. Finally, 50 µL citrated pooled plasma was added and the clotting time was automatically recorded. The following mixtures served as controls: 1) 50 µL PBS‐heme + 50 µL Actin FSL + 50 µL CaCl2 + 50 µL FXa + 50 µL citrated plasma, 2) 50 µL PBS‐heme + 50 µL Actin FSL + 50 µL CaCl2 + 50 µL PBS + 50 µL citrated plasma, 3) 50 µL PZ–heme + 50 µL Actin FSL + 50 µL CaCl2 + 50 µL PBS + 50 µL citrated plasma, 4) 50 µL PZ‐PBS + 50 µL Actin FSL + 50 µL CaCl2 + 50 µL FXa + 50 µL citrated plasma, 5) 50 µL PZ‐PBS + 50 µL Actin FSL + 50 µL CaCl2 + 50 µL PBS + 50 µL citrated plasma, 6) 50 µL PBS + 50 µL Actin FSL + 50 µL CaCl2 + 50 µL FXa + 50 µL citrated plasma, and 7) 50 µL PBS + 50 µL Actin FSL + 50 µL CaCl2 + 50 µL PBS + 50 µL citrated plasma. Final concentrations in the approach were 6 mM CaCl2, 0–20 µM heme, 32 nM and PZ, 0.1 nM FXa. Data were normalized against the clotting time of citrated plasma only (control (7)) and evaluated as the mean of triplicates. The IC50 was determined by fitting the curves with nonlinear regression (GraphPad Prism, version 10.5.0).

Experiment [3] can be described thus: Substrate control of the chromogenic assay without thrombin. The class given is biochemical. As to conditions: no thrombin; heme 1 – 1000 nM, PZ 10 nM; thrombin = 100 %. Here is the method: as §2, with “10.5.0). […]” for “10.5.0).”
thrombinheme (0 nM)heme (1 nM) thrombin heme (3.16 nM)heme (10 nM)heme (31.6 nM)heme (100 nM)heme (316 nM)heme (1000 nM)PZ+heme (0 nM)PZ+heme (1 nM) PZ+heme (3.16 nM)PZ+heme (10 nM)PZ+heme (31.6 nM)PZ+heme (100 nM)PZ+heme (316 nM)PZ+heme (1000 nM)
Figure S5. […]

Experiment [4] deals with PZ-dependent protease inhibitor (ZPI). More on the design: method as in PMID 22786881, PMID 24960590. As to conditions: read-out: K D (PZ interaction with ZPI via peptidase-like domain); cited from earlier work.
Details of experiment [5]: method as in PMID 27584039. As to conditions: read-out: K D (PZ interaction with phospholipid surfaces via Gla domain); cited from earlier work.
Experiment [6] deals with thrombin. More on the design: method as in PMID 2040612. As to conditions: read-out: K D (PZ direct binding to thrombin); cited from earlier work.
For experiment [7], the system named is thrombin. Set-up: method as in PMID 2040612. As to conditions: PZ:thrombin ratios of ≈1:9 to ≈5:1; cited from earlier work.
Experiment [8] deals with T2, thrombin. As to conditions: cited from earlier work.
A further experiment deals with ZPI (Homo sapiens) (UniProt Q9UK55). As to conditions: cited from earlier work.
The mark [9] stands for this setting: 100 mM HEPES pH 7.0, 30 min, stoichiometry 1:1.

Several values for one entry are separate records, joined by “and”; a condition that tells them apart may be missing. Identical values can stand only once. Entries after “also recorded” stand apart in the source; their conditions may differ. Like-named read-outs stand apart in the source and are kept apart here. No end group written: not given here. Cys(S-Me) = S-methylated cysteine

Sequence of ZPI (Homo sapiens) (Q9UK55 22-444): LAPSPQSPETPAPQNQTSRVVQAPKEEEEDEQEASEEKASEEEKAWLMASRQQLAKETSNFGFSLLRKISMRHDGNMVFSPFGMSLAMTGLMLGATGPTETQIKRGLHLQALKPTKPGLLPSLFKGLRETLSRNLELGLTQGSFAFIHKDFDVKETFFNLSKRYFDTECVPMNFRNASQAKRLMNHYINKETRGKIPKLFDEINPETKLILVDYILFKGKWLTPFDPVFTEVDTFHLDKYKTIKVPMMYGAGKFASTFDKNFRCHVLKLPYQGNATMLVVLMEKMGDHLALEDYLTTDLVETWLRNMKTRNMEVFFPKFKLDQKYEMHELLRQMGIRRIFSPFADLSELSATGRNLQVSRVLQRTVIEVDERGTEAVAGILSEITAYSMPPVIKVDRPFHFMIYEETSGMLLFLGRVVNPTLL

In the case of `C=CC1=C(C)c2cc3[nH]c(cc4nc(cc5[nH]c(cc1n2)c(C)c5CCC(=O)O)C(CCC(=O)O)=C4C)c(C)c3C=C` [protoporphyrin IX], the “binding to PZ” value at Human protein Z (PZ) was “did not bind”. Besides, the Kd at thrombin [1] (heterogeneous ligand model, read-out: KD1 (porphyrin binding to thrombin)) amounted to 150 nM; at thrombin [1] (read-out: KD2 (porphyrin binding to thrombin)), 2200 nM.
Regarding `C=CC1=C(C)c2cc3[n-]c(cc4[n-]c(cc5nc(cc1n2)C(C)=C5C=C)c(C)c4CCC(=O)O)c(CCC(=O)O)c3C.[Zn+2]` [zinc protoporphyrin IX], the “binding to PZ” value on Human protein Z (PZ) is recorded as “did not bind”.
Turning to AKNEC(Me)HPERT [Peptide 2], the “K D (heme-binding affinity of peptide)” value in experiment [2] (setting [9]) is given as “n.b”. Further, the “heme binding on peptide level” value in experiment [2] is “did not bind heme”.
“C(Me)SLLHRNITVKTYFNRT ({Cys(S-Me)}-SLLHRNITVKTYFNRT) [Peptide 3, PZ-derived peptide around H183/Y191 with methylated cysteine, positions 179 - 195]”: the Kd in experiment [2] (setting [9]) is 1130 ± 500 nM. Also, the “heme binding on peptide level” value in experiment [2] was “bound heme”.
For FWRRYKGGS [Peptide 1], in that order: 1040 ± 360 nM and “bound heme”.
For “IKITHVHVHMRYD [Peptide 4, PZ-derived peptide around H206/H208/H210, positions 202 - 214]”, in that order: 790 ± 360 nM and “bound heme”.
“PZ: Human protein Z, vitamin-K-dependent glycoprotein, anticoagulant cofactor; obtained from CellSystems GmbH”: the “amidolytic activity of thrombin at highest PZ concentration” value in the experiment on human α-thrombin (PZ 1 µM, ratio ≈30:1 PZ:thrombin) is listed as “≈ 140%”. Moreover, the “inhibitory effect toward the amidolytic activity of thrombin” value in the experiment on human α-thrombin (PZ:thrombin ratios of 1:15 to 21:1, without heme) was “≈ 20% and 20%”. The “remaining amidolytic activity of thrombin” value in the experiment with human α-thrombin (PZ:thrombin ratios of 1:30 to ≈10:1, thrombin 30 nM) was “≈ 5080%”. In addition, the “impact alone on the procoagulant function of FXa or on clotting of pure plasma (aPTT)” value with PZ (controls, heme 0.06 – 20 µM, PZ 32 nM, FXa 0.1 nM) was “not significantly influenced; also recorded: did not exert any significant impact”. Further, the “effect of PZ on the procoagulant effect of FXa” value with PZ (without heme) was “block the procoagulant effect of FXa completely”. In experiment [3], the “relative amidolytic activity toward substrate S-2238” value was ~ 0%. Further, the results for the Kd (in [4]; in [5]; at thrombin [6]) were around 1 nM, around 48 µM and 110 to 150 nM, respectively. Further, the “inhibition of the activity of thrombin in the presence of PZ” value with thrombin [7] was “≈ 20%”.
For the compound Protein Z (from UniProt P22891), the Kd with thrombin [8] is 130 nM.
With “Protein Z peptidase-like domain (from UniProt P22891)”, the Kd with ZPI (Homo sapiens) was 1 nM.
As to “VTREHRGSW [Peptide 5, PZ-derived peptide around H321, positions 317 - 325]”, the “heme binding on peptide level” value in experiment [2] is on record as “did not bind heme”.

Values taken from paper PMC12781162, “Human Protein Z as the Second Known Heme‐Binding Protein from the Endogenous Blood Coagulation Inhibitor System” (Chembiochem, 2025).
